Test results taken from ChEMBL document CHEMBL2396568, “An insight into synthetic Schiff bases revealing antiproliferative activities in vitro” (Bioorg Med Chem, 2013).
pEC50, pIC50: −log10 of the molar value. One block for each compound: values may come before it.

Experiments:
Artemia salina = test: Toxicity in brine shrimp; assay type: functional; settings: read-out: ED50 (the source's name)
[1] = Antiproliferative activity against human SW707 cells after 72 hrs by sulforhodamine B assay; assay type: functional; settings: SW707, 72 h, read-out: ID50 (the source's name)
[2] = Antiproliferative activity against human HCV29T cells after 72 hrs by sulforhodamine B assay; assay type: functional; settings: read-out: ID50 (the source's name)
HCT-116 [3] = test: Antiproliferative activity against human HCT116 cells after 48 hrs by sulforhodamine B assay; assay type: functional, cell-based; settings: HCT-116, 48 h
HCT-116 [4] = test: Selectivity ratio of IC50 for human HCT116 cells to IC50 for human Hep2 cells; assay type: functional
HEp-2 = test: Antiproliferative activity against human Hep2 cells after 48 hrs by sulforhodamine B assay; assay type: functional, cell-based; settings: HEp-2, 48 h
MCF7 [5] = test: Antiproliferative activity against doxorubicin-resistant human MCF7 cells after 72 hrs by neutral red uptake assay; assay type: functional, cell-based
MCF7 [6] = test: Antiproliferative activity against wild-type human MCF7 cells after 72 hrs by neutral red uptake assay; assay type: functional, cell-based
KB [7] = test: Antiproliferative activity against human KB cells after 72 hrs by neutral red uptake assay; assay type: functional, cell-based
A549 [8] = test: Antiproliferative activity against human A549 cells after 24 hrs by MTT assay; assay type: functional, cell-based; settings: A549, 24 h
A549 [9] = test: Antiproliferative activity against human A549 cells after 48 hrs by MTT assay; assay type: functional, cell-based; settings: A549, 48 h
HeLa [10] = test: Antiproliferative activity against human HeLa cells after 48 hrs by MTT assay; assay type: functional, cell-based
HeLa [11] = test: Antiproliferative activity against human HeLa cells after 24 hrs by MTT assay; assay type: functional, cell-based
CCRF-SB = test: Antiproliferative activity against human CCRF-SB cells after 96 hrs by MTT assay; assay type: functional, cell-based
MT4 = test: Antiproliferative activity against human MT4 cells after 96 hrs by MTT assay; assay type: functional, cell-based; settings: MT4, 96 h
WIL2-NS = test: Antiproliferative activity against human WIL2-NS cells after 96 hrs by MTT assay; assay type: functional, cell-based
CCRF-CEM = test: Antiproliferative activity against human CCRF-CEM cells after 96 hrs by MTT assay; assay type: functional, cell-based
MCF7 [12] = test: Antiproliferative activity against human MCF7 cells after 96 hrs by MTT assay; assay type: functional, cell-based; settings: MCF7, 96 h
SK-MEL-28 = test: Antiproliferative activity against human SK-MEL-28 cells after 96 hrs by MTT assay; assay type: functional, cell-based; settings: SK-MEL-28, 96 h
A2780 [13] = test: Antiproliferative activity against human A2780 cells after 72 hrs by MTT assay; assay type: functional, cell-based; settings: A2780, 72 h
A2780 [14] = test: Antiproliferative activity against cisplatin-resistant human A2780 cells after 72 hrs by MTT assay; assay type: functional, cell-based; settings: A2780, 72 h
PC-3 = test: Antiproliferative activity against human PC3 cells after 24 hrs by MTT assay; assay type: functional, cell-based; settings: PC-3, 24 h
MCF7 [15] = test: Antiproliferative activity against human MCF7 cells after 24 hrs by MTT assay; assay type: functional, cell-based; settings: MCF7, 24 h
K562 = test: Antiproliferative activity against human K562 cells by MTT assay; assay type: functional, cell-based
KB [16] = test: Antiproliferative activity against wild-type human KB cells after 24 hrs by MTS assay; assay type: functional, cell-based
KB [17] = test: Antiproliferative activity against hydroxyurea-resistant human KB cells after 24 hrs by MTS assay; assay type: functional, cell-based

SMILES: O=C(O)C(Cc1ccccc1)/N=C1/c2c(O)cccc2C([C@@H]2O[C@H](CO)[C@@H](O)[C@H](O)[C@H]2O)c2cc(CO)cc(O)c21 (stereo not given in full)
- pEC50 (Artemia salina): 3.51

SMILES: CC(C)C(/N=C1/c2c(O)cccc2C([C@@H]2O[C@H](CO)[C@@H](O)[C@H](O)[C@H]2O)c2cc(CO)cc(O)c21)C(=O)O (stereo not given in full)
- pEC50 (Artemia salina): 4.72

SMILES: O=C(O)C(Cc1ccccc1)/N=C1/c2c(O)cccc2Cc2cc(CO)cc(O)c21 (stereo not given)
- pEC50 (Artemia salina): 3.48

SMILES: Brc1ccccc1/C=N/c1nc2ccccc2[nH]1
- pIC50 [1]: 4.58
- pIC50 [2]: 4.45

- pIC50 (HCT-116 [3]): 5.04
SMILES: Oc1ccc(Br)cc1/C=N/Cc1cccs1
- Ratio IC50 (HCT-116 [4]): >2
- pIC50 (HEp-2): 5.42

SMILES: CCC(C)C(/N=C1/c2c(O)cccc2Cc2cc(CO)cc(O)c21)C(=O)O (stereo not given)
- pEC50 (Artemia salina): 3.61

- pIC50 (MCF7 [5]; Homo sapiens, MCF7, 72 h): 7.00
- pIC50 (MCF7 [6]; Homo sapiens, MCF7, 72 h): 6.40
- pIC50 (KB [7]; Homo sapiens, KB, 72 h): 6.30
SMILES: C/N=C/c1c(O)c(O)c(C(C)C)c2c1C(=O)C(C1=C(C)C(=O)c3c(c(/C=N/C)c(O)c(O)c3C(C)C)C1=O)=C(C)C2=O

SMILES: CCC(C)C(/N=C1/c2c(O)cccc2C([C@@H]2O[C@H](CO)[C@@H](O)[C@H](O)[C@H]2O)c2cc(CO)cc(O)c21)C(=O)O (stereo not given in full)
- pEC50 (Artemia salina): 4.45

SMILES: O=[N+]([O-])c1ccc(/C=N/c2nc3ccccc3[nH]2)cc1
- pIC50 [1]: 4.06
- pIC50 [2]: 4.05

- pIC50 (A549 [8]): 3.68
- pIC50 (A549 [9]): 3.75
- pIC50 (HeLa [10]): 4.60
- pIC50 (HeLa [11]): 4.37
SMILES: C(=N\c1ccccc1)/c1ccc2c(c1)OCO2

SMILES: FC(F)(F)c1ccc(/C=N/c2nc3ccccc3[nH]2)cc1
- pIC50 [2]: 3.70

SMILES: CC(O)C(/N=C1/c2c(O)cccc2C([C@@H]2O[C@H](CO)[C@@H](O)[C@H](O)[C@H]2O)c2cc(CO)cc(O)c21)C(=O)O (stereo not given in full)
- pEC50 (Artemia salina): 4.56

- pIC50 (A549 [8]): 3.79
- pIC50 (A549 [9]): 3.86
- pIC50 (HeLa [10]): 6.05
- pIC50 (HeLa [11]): 5.72
SMILES: FC(F)(F)c1ccc(/C=N/c2ccccc2)cc1

- pIC50 (CCRF-SB): 5.30
- pIC50 (CCRF-CEM): 5.70
- pIC50 (MCF7 [12]): 5.00
- pIC50 (SK-MEL-28): 5.22
SMILES: O=[N+]([O-])c1ccc(/C=N\c2nsc3ccccc23)o1
- pIC50 (MT4): 5.70
- pIC50 (WIL2-NS): 5.19

- pIC50 (A2780 [13]): 4.57
- pIC50 (A2780 [14]): 4.59
- pIC50 (PC-3): 4.41
- pIC50 (MCF7 [15]): 4.49
SMILES: Oc1c(Cl)cc(Cl)cc1/C=N\CCn1cccn1

SMILES: CC(C)CC(/N=C1/c2c(O)cccc2C([C@@H]2O[C@H](CO)[C@@H](O)[C@H](O)[C@H]2O)c2cc(CO)cc(O)c21)C(=O)O (stereo not given in full)
- pEC50 (Artemia salina): 4.49

SMILES: Clc1cccc(/C=N/c2nc3ccccc3[nH]2)c1
- pIC50 [1]: 4.28
- pIC50 [2]: 4.12

SMILES: Cc1cc(O)c2c(c1)C([C@@H]1O[C@H](CO)[C@@H](O)[C@H](O)[C@H]1O)c1cccc(O)c1/C2=N/C(CS)C(=O)O (stereo not given in full)
- pEC50 (Artemia salina): 4.99

- pIC50 (CCRF-SB): 5.52
- pIC50 (CCRF-CEM): 5.70
SMILES: Cc1ccc2snc(/N=C\c3ccccc3O)c2c1
- pIC50 (MT4): 5.30
- pIC50 (WIL2-NS): 5.22

- pIC50 (K562): 4.43
SMILES: S=C(N/N=C(\c1ccccc1)c1ccccn1)SCc1ccccc1

SMILES: COc1ccc(/C=N/c2nc3ccccc3[nH]2)cc1OC
- pIC50 [1]: 3.81
- pIC50 [2]: 3.98

- pIC50 (KB [16]): 4.65
- pIC50 (KB [17]): 4.67
SMILES: O=C(NO)N/N=C/c1cc(Cl)cc(Cl)c1O

- pIC50 (A549 [8]): 3.84
- pIC50 (A549 [9]): 4.05
- pIC50 (HeLa [10]): 4.48
- pIC50 (HeLa [11]): 3.94
SMILES: Cc1ccc(/C=N/c2ccccc2)c(C)c1

- pIC50 (MCF7 [5]; mcf7): 6.52
- pIC50 (MCF7 [6]; mcf7): 6.00
- pIC50 (KB [7]; kb): 5.80
SMILES: CC/N=C/c1c(O)c(O)c(C(C)C)c2cc(C)c(-c3c(C)cc4c(C(C)C)c(O)c(O)c(/C=N/CC)c4c3O)c(O)c12 (stereo in doubt; (+)-74)

SMILES: O=C(O)C/N=C1/c2c(O)cccc2C([C@@H]2O[C@H](CO)[C@@H](O)[C@H](O)[C@H]2O)c2cc(CO)cc(O)c21 (stereo not given in full)
- pEC50 (Artemia salina): 3.39

- pIC50 (MCF7 [5]; mcf7): 6.40
- pIC50 (MCF7 [6]; mcf7): 5.30
- pIC50 (KB [7]; kb): 6.00
SMILES: CC/N=C/c1c(O)c(O)c(C(C)C)c2cc(C)c(-c3c(C)cc4c(C(C)C)c(O)c(O)c(/C=N/CC)c4c3O)c(O)c12 (stereo in doubt; (+/-)-74)

- pIC50 (PC-3): 3.28
- pIC50 (MCF7 [15]): 3.15
SMILES: Oc1ccccc1/C=N\CCn1cccn1

- pIC50 (A549 [8]): 5.85
- pIC50 (A549 [9]): 6.10
- pIC50 (HeLa [10]): 6.30
- pIC50 (HeLa [11]): 5.89
SMILES: Clc1ccc(/C=N/c2ccccc2)c(Cl)c1
